Data: US7223865B2, “Chromogenic compounds, and use thereof as enzyme substrates” (Biomerieux, priority 2003, dated 2007)

What was measured:
Assay type in all cases: cell-based
[1] = tested on: Enterobacter cloacae (NCTC 11936); experiment: glycine-aminopeptidase activity on gelled medium, Example 10; parameters: key to growth: ++ means good growth; + means moderate growth; +/− means poor growth; NG means no growth
Description: (§1) A gelled medium comprising this substrate is prepared as follows: 30 mg of the substrate are dissolved (heating) in 10 ml of sterile distilled water. Ten ml of this solution are then added to 90 ml of Columbia agar, kept molten at 50° C.
(§2) Various strains of microorganisms derived from the NCTC collection (National Collection of Type Cultures, Colindale, UK) were seeded onto the media thus obtained according to the multipoint inoculation described in example 8 above.
(§3) The colonies formed were examined visually after incubation for 24 h and 48 h. The color and the growth of these colonies were noted.

[2] = tested on: Klebsiella pneumonia (NCTC 10896); experiment: as above; parameters: key to growth: ++ means good growth; + means moderate growth; +/− means poor growth; NG means no growth
Description: as §1, §2, §3

[3] = tested on: Staphylococcus aureus (NCTC 11939); experiment: as above; parameters: key to growth: ++ means good growth; + means moderate growth; +/− means poor growth; NG means no growth
Description: as §1, §2, §3

[4] = tested on: Enterococcus faecium (NCTC 7171); experiment: as above; parameters: key to growth: ++ means good growth; + means moderate growth; +/− means poor growth; NG means no growth
Description: as §1, §2, §3

[5] = tested on: Shigella sonnei (NCTC 9774); experiment: as above; parameters: key to growth: ++ means good growth; + means moderate growth; +/− means poor growth; NG means no growth
Description: as §1, §2, §3

[6] = tested on: Listeria monocytogenes (NCTC 11994); experiment: as above; parameters: key to growth: ++ means good growth; + means moderate growth; +/− means poor growth; NG means no growth
Description: as §1, §2, §3

[7] = tested on: Burkholderia cepacia (NCTC 10743); experiment: as above; parameters: key to growth: ++ means good growth; + means moderate growth; +/− means poor growth; NG means no growth
Description: as §1, §2, §3

[8] = tested on: Enterococcus faecalis (NCTC 12697); experiment: as above; parameters: key to growth: ++ means good growth; + means moderate growth; +/− means poor growth; NG means no growth
Description: as §1, §2, §3

[9] = tested on: Salmonella typhimurium (NCTC 74); experiment: as above; parameters: key to growth: ++ means good growth; + means moderate growth; +/− means poor growth; NG means no growth
Description: as §1, §2, §3

[10] = tested on: Pseudomonas aeruginosa (NCTC 10662); experiment: as above; parameters: key to growth: ++ means good growth; + means moderate growth; +/− means poor growth; NG means no growth
Description: as §1, §2, §3

[11] = tested on: Serratia marcescens (NCTC 10211); experiment: as above; parameters: key to growth: ++ means good growth; + means moderate growth; +/− means poor growth; NG means no growth
Description: as §1, §2, §3

[12] = tested on: Escherichia coli O157 (NCTC 12079); experiment: as above; parameters: key to growth: ++ means good growth; + means moderate growth; +/− means poor growth; NG means no growth
Description: as §1, §2, §3

[13] = tested on: Salmonella poona (NCTC 4840); experiment: as above; parameters: key to growth: ++ means good growth; + means moderate growth; +/− means poor growth; NG means no growth
Description: as §1, §2, §3

[14] = tested on: Enterococcus faecalis (NCTC 755); experiment: as above; parameters: key: ++ means good growth; + means moderate growth; +/− means poor growth; NG means no growth
Description: as §1, §2, §3

[15] = tested on: Escherichia coli (NCTC 14018); experiment: as above; parameters: key: ++ means good growth; + means moderate growth; +/− means poor growth; NG means no growth
Description: as §1, §2, §3

[16] = tested on: Staphylococcus aureus (NCTC 6571); experiment: as above; parameters: key: ++ means good growth; + means moderate growth; +/− means poor growth; NG means no growth
Description: as §1, §2, §3

Candida glabrata (051) = experiment: L-proline-aminopeptidase activity on gelled medium, Example 6; conditions: 0.3 g/l, 24 hours
Description: (§4) A gelled medium comprising L-prolyl-9-(4-amino-phenyl)acridine (hereinafter referred to as L-Pro-4-APA) is prepared as follows: 45 g of Sabouraud agar are added to 1 liter of distilled water and then autoclaved. This reaction medium comprises 0.3 g/l of L-Pro-APA also introduced by means of a stock solution in DMSO.
(§5) Microorganisms derived from the applicant's collection were seeded onto this medium, by delimitation as three dials, using a suspension of 0.5 McFarland. The dishes were incubated at 37° C. for 24 hours. The colonies formed were examined visually after incubation for 24 hours. The color of these colonies was noted before and after the addition of a drop of acetic acid, hereinafter referred to as GAA (glacial acetic acid).

[17] = tested on: Candida guilliermondii (046); experiment: as above; conditions: 0.3 g/l, 24 hours
Description: as §4, §5

[18] = tested on: Candida parapsilosis (040); experiment: as above; conditions: 0.3 g/l, 24 hours
Description: as §4, §5

Candida lusitaniae (045) = experiment: as above; conditions: 0.3 g/l, 24 hours
Description: as §4, §5

Candida krusei (026) = experiment: as above; conditions: 0.3 g/l, 24 hours
Description: as §4, §5

Candida albicans (138) = experiment: as above; conditions: 0.3 g/l, 24 hours
Description: as §4, §5

C[n+]1c2ccccc2c(-c2ccc(NC(=O)CN)cc2)c2ccccc21.[Cl-] [G-4-AP-10-MA, glycyl-9-(4-aminophenyl)-10-methylacridine]
Orange: color of colonies ([1]; 24 h) | color of colonies ([1]; 48 h) | color of colonies ([2]; 24 h) | color of colonies ([2]; 48 h) | color of colonies ([5]; 24 h) | color of colonies ([5]; 48 h) | color of colonies ([7]; 24 h) | color of colonies ([7]; 48 h) | color of colonies ([10]; 48 h) | color of colonies ([11]; 24 h) | color of colonies ([11]; 48 h) | color of colonies ([12]; 24 h) | color of colonies ([12]; 48 h) | color of colonies ([13]; 24 h) | color of colonies ([13]; 48 h)
++: growth ([1]; 24 h) | growth ([1]; 48 h) | growth ([2]; 24 h) | growth ([2]; 48 h) | growth ([5]; 24 h) | growth ([5]; 48 h) | growth ([7]; 24 h) | growth ([7]; 48 h) | growth ([9]; 48 h) | growth ([10]; 48 h) | growth ([11]; 24 h) | growth ([11]; 48 h) | growth ([12]; 24 h) | growth ([12]; 48 h) | growth ([13]; 24 h) | growth ([13]; 48 h)
Pale orange: color of colonies ([9]; 24 h) | color of colonies ([9]; 48 h) | color of colonies ([10]; 24 h)
+: growth ([3]; 24 h) | growth ([3]; 48 h) | growth ([4]; 24 h) | growth ([4]; 48 h) | growth ([6]; 24 h) | growth ([6]; 48 h) | growth ([8]; 24 h) | growth ([8]; 48 h)
Colorless: color of colonies ([3]; 24 h) | color of colonies ([3]; 48 h) | color of colonies ([4]; 24 h) | color of colonies ([4]; 48 h) | color of colonies ([6]; 24 h) | color of colonies ([6]; 48 h) | color of colonies ([8]; 24 h) | color of colonies ([8]; 48 h)
NG: growth ([14]; 24 h) | growth ([14]; 48 h) | growth ([15]; 24 h) | growth ([15]; 48 h) | growth ([16]; 24 h) | growth ([16]; 48 h)
(++): growth ([9]; 24 h) | growth ([10]; 24 h)

O=C(Nc1ccc(-c2c3ccccc3nc3ccccc23)cc1)[C@@H]1CCCN1 [L-Pro-4-APA, L-Prolyl-9-(4-aminophenyl)acridine]
white: Color ([18]; before GAA)
1: Intensity (Candida krusei (026); before GAA)
3: Intensity (Candida glabrata (051); after GAA) | Intensity (Candida krusei (026); after GAA) | Intensity (Candida albicans (138); after GAA)
no growth: Color ([17]; after GAA) | Color ([17]; before GAA) | Color (Candida lusitaniae (045); after GAA) | Color (Candida lusitaniae (045); before GAA)
2: Intensity (Candida glabrata (051); before GAA) | Intensity ([18]; after GAA) | Intensity (Candida albicans (138); before GAA)
yellow: Color (Candida glabrata (051); after GAA) | Color (Candida glabrata (051); before GAA) | Color ([18]; after GAA) | Color (Candida krusei (026); after GAA) | Color (Candida krusei (026); before GAA) | Color (Candida albicans (138); after GAA) | Color (Candida albicans (138); before GAA)
